Experimental data as given in PMC11042424, “Development of a First-in-Class RIPK1 Degrader to Enhance Antitumor Immunity” (Research Square, 2024).

Tested on: B16F10 tumors
Test: B16F10 syngeneic tumor model with anti-PD1
Assay type: in vivo
Description: Figure 4 LD4172 synergizes with Anti-PD1 to inhibit tumor growth. A, Plasma concentrations of LD4172 in C57BL/6J mice administered 1 mg/kg intravenously (i.v.) or 10 mg/kg intraperitoneally (i.p.) (n=4). B, Representative immunoblots of RIPK1 in different tissues of C57BL/6J mice treated with LD4172 (n=3–4). C, Densitometric analysis of RIPK1 protein levels in different tissues (n=3 or 4). D, Representative immunoblots of RIPK1 levels of B16F10 cells transduced with gRNA specific for RIPK1 or non-targetable control (sgNC). E, B16F10-RIPK1-KO tumors sensitized to anti-PD1 treatment: 3×10^5 B16F10 cells transduced with gRNA specific for RIPK1 or non-targetable control (sgNC) were inoculated into C57BL/6J mice. After seven days, mice with measurable tumors (~100 mm3) were randomly treated with or without anti-PD1 in vivo (100 μg per dose, i.p., every three days, n=8). F, Tumor growth curve of mice with B16F10 tumors treated with LD4172 and/or anti-PD1 (n=8). C57B6/J mice were subcutaneously inoculated with 3×10^5 B16F10 tumor cells. After seven days (tumor size ~ 100 mm3), mice were treated every three days with anti- PD1 (100 μg per dose, i.p.), daily with LD4172 (20 mg/kg, i.p.), a combination of LD4172 and anti-PD1 (same dose as their individual doses), or their corresponding vehicle control. G, Kaplan-Meier survival curve for all experimental groups. H, Final tumor weight (g) from F after 22d of treatment (n=8). I, Representative images of B16F10 tumors collected at the end of treatment. J, Mouse body weight (n=8). K, Tumor growth curve of mice with B16F10 tumors treated with T2I and/or anti-PD1 (n=8). The experimental conditions and treatment regimens were the same as F except using the RIPK1 kinase inhibitor T2I (20 mg/kg, i.p.) to replace LD4172. Representative data from at least three independent experiments are shown. Data are expressed as the mean ± SEM. * p<0.05; ** p<0.01; *** p<0.001, **** p<0.0001, respectively. ns, indicates no statistical significance.
To establish a syngeneic mouse model, 3× 10^5 B16F10 cells resuspended in PBS were mixed 1:1 by volume with Matrigel (354262, Corning) and subcutaneously injected into the right flank of seven-week-old wild-type female C57BL/6J mice on day 0. Treatments were started on day 7 when the tumor volume reached approximately 100 mm^3. Antibodies were administered in 100μL volumes and injected intraperitoneally every three days for the following: anti-PD1 (100 μg, BE0146, BioXcell) and anti-CD8 (500 μg, BE0004, BioXcell). The RIPK1 degrader LD4172 and RIPK1 kinase inhibitor T2I were delivered in 200 μL of vehicle solution (30% PEG400, 5% Tween-80, 5% DMSO) once daily (20 mg/kg, i.p. injection). […] Tumors were measured every three days beginning on day 7 after the challenge until death. […]

Structure (SMILES): Cc1ncsc1-c1ccc([C@H](C)NC(=O)[C@@H]2C[C@@H](O)CN2C(=O)[C@@H](NC(=O)CCCCCCCCCCC(=O)NCCCn2cc(-c3ccc4c(c3)CCN4C(=O)Cc3cccc(OC(F)(F)F)c3)c3c(N)ncnc32)C(C)(C)C)cc1 [LD4172]
- tumor response in combination with anti-PD1 (B16F10 tumors, 20 mg/kg i.p. daily plus anti-PD1 100 μg i.p. every three days): sensitized B16F10 tumors to anti-PD1 therapy
- tumor progression, single agent (B16F10 tumors, LD4172 20 mg/kg i.p. daily, anti-PD1 100 μg i.p. every three days): tumor progression similar to that of the untreated mice
- mouse body weight (long-term administration): no impact on mouse body weight
